Data as given in paper PMC9777025, “Silibinin Overcomes EMT-Driven Lung Cancer Resistance to New-Generation ALK Inhibitors” (Cancers, 2022).

Key:
[1] = tested on: H3122; assay: cells; parameters: species or system H2228, H2228/CR, H3122/CR; MTT cell viability assay, absorbance at 570 nm, IC50 by interpolation; details: Homo sapiens, NCI-H3122; without silibinin
Experimental: (§1) 2.5. Cell Viability Assay The cell viability effects of ALK–TKIs and silibinin were determined using the colorimetric MTT (3-4,5-dimethylthiazol-2-yl-2,5-diphenyl-tetrazolium bromide) reduction assay. Dose-response curves to graded concentrations of drugs were plotted as a percentage of the control cell absorbance, which was obtained from control cells containing the vehicle processed simultaneously. For each treatment, cell viability was evaluated using the following equation: (OD570 of the treated sample/OD570 of the untreated sample) × 100. Sensitivity to agents was expressed in terms of the concentrations required for a 50% (IC50) reduction in cell viability. Since the percentage of control absorbance was considered to be the surviving fraction of cells, the IC50 values were defined as the concentration of drug that produced a 50% reduction in control absorbance (by interpolation).

[2] = tested on: H2228; assay: cells; parameters: species or system H2228/CR, H3122, H3122/CR; MTT cell viability assay, absorbance at 570 nm, IC50 by interpolation; details: Homo sapiens, NCI-H2228; without silibinin
Experimental: as §1

[3] = tested on: T1, H3122/CR; assay: cells; parameters: species or system H2228, H2228/CR; MTT cell viability assay, absorbance at 570 nm, IC50 by interpolation; details: Homo sapiens, NCI-H3122; without silibinin
T1 construct: crizotinib-resistant H3122
Experimental: as §1

[4] = tested on: T2, H2228/CR; assay: cells; parameters: species or system H3122, H3122/CR; MTT cell viability assay, absorbance at 570 nm, IC50 by interpolation; details: Homo sapiens, NCI-H2228; without silibinin
T2 construct: crizotinib-resistant H2228
Experimental: as §1

[5] = molecular target: T3, TGFβR2 (Homo sapiens, UniProt P37173); assay: LanthaScreen Eu kinase binding assay (TR-FRET tracer displacement), 10-point titration
T3 construct: gene TGFBR2
T3 sequence (P37173 23-567): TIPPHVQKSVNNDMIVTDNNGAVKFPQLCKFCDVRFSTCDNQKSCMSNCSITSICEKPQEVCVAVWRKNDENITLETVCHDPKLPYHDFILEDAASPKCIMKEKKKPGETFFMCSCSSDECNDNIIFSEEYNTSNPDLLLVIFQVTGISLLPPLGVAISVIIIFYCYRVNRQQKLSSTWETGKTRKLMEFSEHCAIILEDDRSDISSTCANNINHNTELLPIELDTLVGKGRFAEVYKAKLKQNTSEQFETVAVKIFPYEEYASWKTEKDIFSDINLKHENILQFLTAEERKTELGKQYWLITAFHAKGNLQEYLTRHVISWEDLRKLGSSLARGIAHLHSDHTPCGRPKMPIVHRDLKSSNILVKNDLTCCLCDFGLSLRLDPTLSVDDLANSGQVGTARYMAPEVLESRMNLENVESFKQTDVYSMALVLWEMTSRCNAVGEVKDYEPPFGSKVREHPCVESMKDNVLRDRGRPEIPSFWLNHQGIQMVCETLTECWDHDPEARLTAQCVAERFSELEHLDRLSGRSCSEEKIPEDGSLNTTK

[6] = molecular target: T4, TGFβR1/ALK5 (Homo sapiens, UniProt P36897); assay: as above
T4 construct: gene TGFBR1
T4 sequence (P36897 34-503): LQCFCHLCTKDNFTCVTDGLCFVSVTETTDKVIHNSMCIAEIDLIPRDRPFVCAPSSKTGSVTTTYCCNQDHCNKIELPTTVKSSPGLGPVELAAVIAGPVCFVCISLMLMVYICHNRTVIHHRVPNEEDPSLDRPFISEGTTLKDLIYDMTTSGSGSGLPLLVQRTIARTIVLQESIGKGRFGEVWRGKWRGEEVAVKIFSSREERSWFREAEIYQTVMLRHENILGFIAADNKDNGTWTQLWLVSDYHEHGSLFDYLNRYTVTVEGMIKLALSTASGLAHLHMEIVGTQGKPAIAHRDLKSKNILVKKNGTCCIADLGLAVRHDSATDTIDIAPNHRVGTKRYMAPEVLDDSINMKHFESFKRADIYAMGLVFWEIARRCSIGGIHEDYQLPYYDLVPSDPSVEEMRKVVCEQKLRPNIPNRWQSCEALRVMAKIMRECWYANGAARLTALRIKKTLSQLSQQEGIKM

Structure (SMILES) | IC50 [1] [µM] | IC50 [2] [µM] | IC50 [3] [µM] | IC50 [4] [µM] | IC50 [5] [µM] | IC50 [6] [µM]
C[C@@H](Oc1cc(-c2cnn(C3CCNCC3)c2)cnc1N)c1c(Cl)ccc(F)c1Cl [crizotinib] | 0.29 | 2.1 | 1.08 | 10.6 |  | 
COc1cc(N2CCC(N3CCN(C)CC3)CC2)ccc1Nc1ncc(Cl)c(Nc2ccccc2P(C)(C)=O)n1 [brigatinib] | 0.02 | 0.5 | 0.12 | 3.8 |  | 
C[C@H]1Oc2cc(cnc2N)-c2c(nn(C)c2C#N)CN(C)C(=O)c2ccc(F)cc21 [lorlatinib] | 0.004 | 1 | 0.02 | 83 |  | 
COc1cc(C2Oc3cc([C@H]4Oc5cc(O)cc(O)c5C(=O)[C@@H]4O)ccc3OC2CO)ccc1O (mixture of isomers) [silibinin] |  |  |  |  | 56 | 70
